Results from patent US20040127467A1, “Synthesis of pancratistatin prodrugs” (priority 2003, published 2004).

Tests used:
[1] = test system: U.S. National Cancer Institute (NCI) panel of cancer cell lines; conditions: cited from earlier work
RNA viruses = conditions: cited from earlier work
[2] = test system: murine P388 lymphocytic leukemia cell line; conditions: compared with pancratistatin (1a); cited from earlier work
[3] = compared with pancratistatin (1a); cited from earlier work
[4] = test system: minipanel of human cancer cell lines; assay: minipanel of human cancer cell lines growth inhibition; assay type: cell-based; conditions: murine P388 and minipanel of human cancer cell lines (Table I)
Experimental: All of the synthetic products were evaluated against the murine P388 lymphocytic leukemia cell line and a minipanel of human cancer cell lines.

## O=C1N[C@H]2[C@H](O)[C@H](O)[C@@H](O)[C@H](O)[C@@H]2c2cc3c(c(O)c21)OCO3 [1a, (+)-pancratistatin]
[1]
  in vitro cancer cell growth inhibitory activities (in words): strong
RNA viruses
  activity against a range of RNA viruses (in words): activity against a range of RNA viruses

## O=C1N[C@H]2[C@H](O)[C@H](O)[C@@H](O)[C@H](O)[C@@H]2c2cc3c(c(OP(=O)([O-])[O-])c21)OCO3.[Na+].[Na+] [2a, Disodium 7-O-phosphoryl-pancratistatin]
[2]
  activity against the murine P388 lymphocytic leukemia cell (in words): equal activity
[3]
  solubility characteristics in water (in words): greatly improved solubility characteristics in water
[4]
  cancer cell line activity (in words): high activity

## C1COCCN1.O=C1NC2C(O)C(O)C(O)C(O)C2c2cc3c(c(OP(=O)(O)O)c21)OCO3 (stereo not drawn) [2k, Morpholine pancratistatin 7-O-phosphate]
other
  water solubility (in words): poor water solubility
